Experimental data from patent US8791108B2, “Inhibitors of human immunodeficiency virus replication” (priority 2011, dated 2014).

Tested on: recombinant NL-Rluc virus
Experiment: Inhibition of HIV replication (NL-RLuc luciferase reporter virus, MT-2 cells)
Format: cell-based
Conditions: Human immunodeficiency virus 1, MT2, 120 h, read-out: Activity

## Cc1nc2cc(C(=O)NCCC3(O)CCCC3)nn2c(-c2cc(F)c3c(c2C)CCCO3)c1[C@H](OC(C)(C)C)C(=O)O [Example 134, (2S)-2-(tert-butoxy)-2-(7-(8-fluoro-5-methylchroman-6-yl)-2-((2-(1-hydroxycyclopentyl)ethyl)carbamoyl)-5-methylpyrazolo[1,5-a]pyrimidin-6-yl)acetic acid]
  EC50: > 1000 nM

## Cc1nc2cc(C(=O)NCCOc3ccccc3)nn2c(-c2cc(F)c3c(c2C)CCCO3)c1[C@H](OC(C)(C)C)C(=O)O [Example 55, (2S)-2-(tert-butoxy)-2-(7-(8-fluoro-5-methylchroman-6-yl)-5-methyl-2-((2-phenoxyethyl)carbamoyl)pyrazolo[1,5-a]pyrimidin-6-yl)acetic acid]
  EC50: < 100 nM

## Cc1nc2cc(C(=O)N3CCN(c4ccc(F)cc4)CC3)nn2c(-c2cc(F)c3c(c2C)CCCO3)c1[C@H](OC(C)(C)C)C(=O)O [Example 87, (2S)-2-(tert-butoxy)-2-(7-(8-fluoro-5-methylchroman-6-yl)-2-(4-(4-fluorophenyl)piperazine-1-carbonyl)-5-methylpyrazolo[1,5-a]pyrimidin-6-yl)acetic acid]
  EC50: < 100 nM

## Cc1nc2cc(C(=O)NCc3ccc(F)c(C4CC4)c3)nn2c(-c2cc(F)c3c(c2C)CCCO3)c1[C@H](OC(C)(C)C)C(=O)O [Example 26]
  EC50: < 100 nM

## Cc1nc2cc(C(=O)NCc3cccc(N4CCOCC4)c3)nn2c(-c2cc(F)c3c(c2C)CCCO3)c1[C@H](OC(C)(C)C)C(=O)O [Example 100]
  EC50: 100 to 1000 nM

## Cc1nc2cc(C(=O)N3CCN(CCN4CCOCC4)CC3)nn2c(-c2cc(F)c3c(c2C)CCCO3)c1[C@H](OC(C)(C)C)C(=O)O [Example 91, (2S)-2-(tert-butoxy)-2-(7-(8-fluoro-5-methylchroman-6-yl)-5-methyl-2-(4-(2-morpholinoethyl)piperazine-1-carbonyl)pyrazolo[1,5-a]pyrimidin-6-yl)acetic acid]
  EC50: > 1000 nM
